Values of other authors in patent US12168056B2, “Scintillator nanocrystal-containing compositions and methods for their use” (The Regents of the University of California, priority 2013, dated 2024).

Test system: human glioblastoma (GBM) cells

Compound: COc1cccc2c1C(=O)c1c(O)c3c(c(O)c1C2=O)C[C@@](O)(C(=O)CO)C[C@@H]3O[C@H]1C[C@H](N)[C@H](O)[C@H](C)O1 [Dox, doxorubicin]
- suppression of GBM cells in culture: potently suppresses
